The values below come from ChEMBL document CHEMBL3797029, “Purinylpyridinylamino-based DFG-in/αC-helix-out B-Raf inhibitors: Applying mutant versus wild-type B-Raf selectivity indices for compound profiling” (Bioorg Med Chem, 2016).

Assay [1] concerns the target Bone morphogenetic protein receptor type-1A (Homo sapiens) (UniProt P36894). Kind of assay: Inhibition of partial length wild type human BMPR1A expressed in bacterial system assessed as enzyme activity at 1 uM relative to control. Also on record: scale not given: the % may be the effect or the level left.
For assay [2], the target named is Dual specificity protein kinase CLK4 (Homo sapiens) (UniProt Q9HAZ1). Put plainly: Inhibition of partial length wild type human CLK4 expressed in bacterial system assessed as enzyme activity at 1 uM relative to control. The arrangement: scale not given: the % may be the effect or the level left.
Sequence of Dual specificity protein kinase CLK4 (Homo sapiens) (Q9HAZ1 whole entry, looked up): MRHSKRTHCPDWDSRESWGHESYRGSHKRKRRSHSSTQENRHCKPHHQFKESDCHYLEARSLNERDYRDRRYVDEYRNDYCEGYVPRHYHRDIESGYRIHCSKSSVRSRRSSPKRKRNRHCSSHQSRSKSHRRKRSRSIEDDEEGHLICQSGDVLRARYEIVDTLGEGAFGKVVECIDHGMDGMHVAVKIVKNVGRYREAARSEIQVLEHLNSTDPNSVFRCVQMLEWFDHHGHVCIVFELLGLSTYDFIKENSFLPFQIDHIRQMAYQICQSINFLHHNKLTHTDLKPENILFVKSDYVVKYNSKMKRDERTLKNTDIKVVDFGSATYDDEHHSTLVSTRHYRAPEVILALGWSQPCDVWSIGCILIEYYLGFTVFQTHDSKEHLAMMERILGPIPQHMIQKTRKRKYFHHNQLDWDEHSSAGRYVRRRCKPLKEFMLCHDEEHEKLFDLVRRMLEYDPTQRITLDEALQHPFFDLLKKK
Assay [3] addresses MAP/microtubule affinity-regulating kinase 3 (Homo sapiens) (UniProt P27448). Kind of assay: Inhibition of full length wild type human MARK3 expressed in bacterial system assessed as enzyme activity at 1 uM relative to control. Also on record: scale not given: the % may be the effect or the level left.
For assay [4], the target named is Serine/threonine-protein kinase Nek4 (Homo sapiens) (UniProt P51957). Put plainly: Inhibition of full length wild type human NEK4 expressed in mammalian system assessed as enzyme activity at 1 uM relative to control. The arrangement: scale not given: the % may be the effect or the level left.
Sequence of Serine/threonine-protein kinase Nek4 (Homo sapiens) (P51957 whole entry, looked up): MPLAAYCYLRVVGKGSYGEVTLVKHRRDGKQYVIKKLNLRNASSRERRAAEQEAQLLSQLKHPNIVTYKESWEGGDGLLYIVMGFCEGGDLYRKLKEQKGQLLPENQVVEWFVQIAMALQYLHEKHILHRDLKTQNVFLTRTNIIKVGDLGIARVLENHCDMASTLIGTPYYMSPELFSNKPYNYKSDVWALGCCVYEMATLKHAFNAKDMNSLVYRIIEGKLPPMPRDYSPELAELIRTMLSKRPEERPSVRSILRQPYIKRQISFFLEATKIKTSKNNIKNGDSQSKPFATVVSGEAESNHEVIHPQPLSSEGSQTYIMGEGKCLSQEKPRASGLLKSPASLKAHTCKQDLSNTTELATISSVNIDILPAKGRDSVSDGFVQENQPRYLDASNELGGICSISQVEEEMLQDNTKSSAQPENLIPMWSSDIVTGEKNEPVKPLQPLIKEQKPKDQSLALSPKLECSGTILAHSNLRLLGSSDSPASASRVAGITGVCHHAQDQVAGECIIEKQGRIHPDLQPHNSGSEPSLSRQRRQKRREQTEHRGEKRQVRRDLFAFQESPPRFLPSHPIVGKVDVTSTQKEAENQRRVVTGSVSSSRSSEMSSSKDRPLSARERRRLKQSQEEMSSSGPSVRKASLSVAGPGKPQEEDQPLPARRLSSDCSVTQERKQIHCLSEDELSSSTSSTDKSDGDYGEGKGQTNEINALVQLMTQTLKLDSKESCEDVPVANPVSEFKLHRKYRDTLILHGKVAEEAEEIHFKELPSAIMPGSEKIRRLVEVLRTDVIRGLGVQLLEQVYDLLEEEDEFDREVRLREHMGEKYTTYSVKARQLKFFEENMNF
The target in assay [5] is Serine/threonine-protein kinase B-raf (Homo sapiens, UniProt P15056, V600E). Kind of assay: Inhibition of B-Raf V600E mutant in human A375 cells assessed as ERK phosphorylation preincubated for 1 hr by Western blot method. Format: cell-based, A-375. For orientation: Immunoblotting shows a protein as a band on a membrane.
The target in assay [6] is Dual specificity mitogen-activated protein kinase kinase 5 (Homo sapiens) (UniProt Q13163). Kind of assay: Inhibition of partial length wild type human MEK5 expressed in mammalian system assessed as enzyme activity at 1 uM relative to control. The arrangement: scale not given: the % may be the effect or the level left.
Sequence of Dual specificity mitogen-activated protein kinase kinase 5 (Homo sapiens) (Q13163 whole entry, canonical isoform): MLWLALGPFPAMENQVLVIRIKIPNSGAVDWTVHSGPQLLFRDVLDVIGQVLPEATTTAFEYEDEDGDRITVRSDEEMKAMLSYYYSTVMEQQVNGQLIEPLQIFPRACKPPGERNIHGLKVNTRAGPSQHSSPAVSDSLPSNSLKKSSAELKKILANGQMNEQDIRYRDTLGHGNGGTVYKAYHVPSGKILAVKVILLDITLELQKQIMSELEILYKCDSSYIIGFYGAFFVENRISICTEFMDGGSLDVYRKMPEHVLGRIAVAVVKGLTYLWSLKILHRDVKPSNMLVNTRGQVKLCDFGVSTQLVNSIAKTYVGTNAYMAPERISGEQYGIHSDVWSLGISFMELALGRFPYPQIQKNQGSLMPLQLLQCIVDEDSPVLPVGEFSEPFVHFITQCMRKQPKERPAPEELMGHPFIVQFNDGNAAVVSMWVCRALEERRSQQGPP
Assay [7] deals with Phosphatidylinositol 4,5-bisphosphate 3-kinase catalytic subunit delta isoform (Homo sapiens) (UniProt O00329). Kind of assay: Inhibition of partial length wild type human PIK3CD expressed in mammalian system assessed as enzyme activity at 1 uM relative to control. Also on record: scale not given: the % may be the effect or the level left.
Sequence of Phosphatidylinositol 4,5-bisphosphate 3-kinase catalytic subunit delta isoform (Homo sapiens) (O00329 whole entry, canonical isoform): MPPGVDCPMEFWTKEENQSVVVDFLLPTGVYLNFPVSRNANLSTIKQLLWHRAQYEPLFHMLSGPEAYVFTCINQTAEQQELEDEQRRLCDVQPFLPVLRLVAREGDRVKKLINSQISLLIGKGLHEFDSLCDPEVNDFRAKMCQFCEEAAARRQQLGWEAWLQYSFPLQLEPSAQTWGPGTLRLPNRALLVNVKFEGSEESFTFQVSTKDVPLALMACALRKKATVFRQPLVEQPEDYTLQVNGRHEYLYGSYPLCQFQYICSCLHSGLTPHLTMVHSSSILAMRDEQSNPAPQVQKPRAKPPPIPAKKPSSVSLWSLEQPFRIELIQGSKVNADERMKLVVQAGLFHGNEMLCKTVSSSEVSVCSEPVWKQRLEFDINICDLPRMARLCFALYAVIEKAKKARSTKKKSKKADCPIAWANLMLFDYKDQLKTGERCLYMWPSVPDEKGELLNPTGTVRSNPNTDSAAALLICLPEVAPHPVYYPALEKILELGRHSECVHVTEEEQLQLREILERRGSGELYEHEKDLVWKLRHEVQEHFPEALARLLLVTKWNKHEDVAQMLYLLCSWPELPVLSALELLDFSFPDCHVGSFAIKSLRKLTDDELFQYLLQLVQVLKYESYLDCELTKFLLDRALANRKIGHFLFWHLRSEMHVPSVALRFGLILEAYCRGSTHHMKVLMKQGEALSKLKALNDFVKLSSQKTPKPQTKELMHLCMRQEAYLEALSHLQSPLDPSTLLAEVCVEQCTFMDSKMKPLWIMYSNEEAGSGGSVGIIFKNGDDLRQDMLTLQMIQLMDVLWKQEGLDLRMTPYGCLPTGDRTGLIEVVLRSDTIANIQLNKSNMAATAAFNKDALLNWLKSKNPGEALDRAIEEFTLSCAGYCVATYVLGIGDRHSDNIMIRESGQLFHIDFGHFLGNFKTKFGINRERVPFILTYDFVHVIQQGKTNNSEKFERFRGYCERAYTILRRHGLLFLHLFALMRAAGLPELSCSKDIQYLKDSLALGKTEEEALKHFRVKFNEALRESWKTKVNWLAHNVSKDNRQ
The target in assay [8] is Cyclin-dependent kinase 18 (Homo sapiens) (UniProt Q07002). Kind of assay: Inhibition of full length wild type human PCTK3 expressed in bacterial system assessed as enzyme activity at 1 uM relative to control. The arrangement: scale not given: the % may be the effect or the level left.
Sequence of Cyclin-dependent kinase 18 (Homo sapiens) (Q07002 whole entry): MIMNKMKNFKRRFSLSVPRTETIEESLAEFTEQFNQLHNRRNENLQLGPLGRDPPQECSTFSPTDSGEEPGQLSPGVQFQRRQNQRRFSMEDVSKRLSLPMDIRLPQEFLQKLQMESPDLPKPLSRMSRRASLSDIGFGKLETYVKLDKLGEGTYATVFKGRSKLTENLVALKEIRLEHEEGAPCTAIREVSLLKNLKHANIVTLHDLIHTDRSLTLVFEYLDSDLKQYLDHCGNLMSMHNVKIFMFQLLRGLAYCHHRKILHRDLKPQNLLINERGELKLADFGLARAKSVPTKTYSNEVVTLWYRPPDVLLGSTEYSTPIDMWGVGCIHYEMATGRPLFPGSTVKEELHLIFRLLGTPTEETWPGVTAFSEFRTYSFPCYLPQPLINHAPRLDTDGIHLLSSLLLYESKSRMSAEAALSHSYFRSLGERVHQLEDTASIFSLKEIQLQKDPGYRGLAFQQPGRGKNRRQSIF
Assay [9] addresses Tyrosine-protein kinase BTK (Homo sapiens) (UniProt Q06187). Kind of assay: Inhibition of full length wild type human BTK expressed in mammalian system assessed as enzyme activity at 1 uM relative to control. The arrangement: scale not given: the % may be the effect or the level left.

Sequence of Tyrosine-protein kinase BTK (Homo sapiens) (Q06187 whole entry): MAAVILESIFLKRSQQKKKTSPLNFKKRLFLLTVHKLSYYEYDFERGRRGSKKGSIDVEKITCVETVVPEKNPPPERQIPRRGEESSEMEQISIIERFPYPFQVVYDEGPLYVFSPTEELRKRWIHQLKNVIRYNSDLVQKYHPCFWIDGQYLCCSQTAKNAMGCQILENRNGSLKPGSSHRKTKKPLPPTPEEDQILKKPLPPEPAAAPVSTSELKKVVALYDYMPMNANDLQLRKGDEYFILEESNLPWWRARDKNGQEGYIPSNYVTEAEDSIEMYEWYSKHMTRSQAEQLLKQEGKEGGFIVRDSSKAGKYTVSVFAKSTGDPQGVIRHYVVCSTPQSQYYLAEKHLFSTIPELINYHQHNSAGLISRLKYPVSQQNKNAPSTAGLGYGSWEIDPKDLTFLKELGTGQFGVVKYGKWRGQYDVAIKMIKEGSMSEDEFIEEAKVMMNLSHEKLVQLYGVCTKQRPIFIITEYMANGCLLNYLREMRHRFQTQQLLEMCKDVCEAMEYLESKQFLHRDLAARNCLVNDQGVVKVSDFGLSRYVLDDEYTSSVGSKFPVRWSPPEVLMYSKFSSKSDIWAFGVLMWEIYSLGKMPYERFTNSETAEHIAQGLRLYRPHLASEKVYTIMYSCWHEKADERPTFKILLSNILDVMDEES
Sequence of Bone morphogenetic protein receptor type-1A (Homo sapiens) (P36894 whole entry): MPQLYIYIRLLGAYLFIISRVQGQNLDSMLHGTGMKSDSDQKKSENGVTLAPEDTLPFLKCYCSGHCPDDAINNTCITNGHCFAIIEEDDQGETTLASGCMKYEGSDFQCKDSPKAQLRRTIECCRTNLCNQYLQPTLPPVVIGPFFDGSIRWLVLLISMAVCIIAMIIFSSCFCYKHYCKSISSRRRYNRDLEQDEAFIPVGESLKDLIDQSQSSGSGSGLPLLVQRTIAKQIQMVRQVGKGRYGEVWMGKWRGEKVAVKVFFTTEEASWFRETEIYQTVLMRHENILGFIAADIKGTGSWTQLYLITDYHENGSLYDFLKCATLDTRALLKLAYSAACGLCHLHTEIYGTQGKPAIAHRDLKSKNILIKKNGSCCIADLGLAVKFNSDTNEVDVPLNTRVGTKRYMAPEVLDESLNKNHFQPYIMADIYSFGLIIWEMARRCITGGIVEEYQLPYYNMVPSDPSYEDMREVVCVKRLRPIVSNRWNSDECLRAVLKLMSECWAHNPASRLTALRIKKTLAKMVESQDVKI

As to `CN(C)S(=O)(=O)Nc1ccc(F)c(Nc2ncccc2-c2ncnc3[nH]cnc23)c1F`, the Activity in assay [1] was found to be 63%; in assay [2] it was 70%; in assay [3], 87%; in assay [4] it was 100%; in assay [6], 0.9%; in [7], 37%. In addition, the figures for the Activity in assay [8] and in assay [9] were 89% and 95%, respectively. Further, the IC50 in assay [5] turned out to be 54 nM.

A word on the IC50: it is the concentration that gives 50% inhibition.
